From ChEMBL document CHEMBL1138480, “Discovery of highly potent and selective biphenylacylsulfonamide-based beta3-adrenergic receptor agonists and evaluation of physical properties as potential overactive bladder therapies: part 5” (J Med Chem, 2009)

Legend:
[1] = test system: Canis familiaris; assay: Inhibition of carbachol-induced increase in intravesical pressure in intraduodenally dosed Beagle dog OAB model for 30 mins measured for 180 mins; assay type: functional, organism-based; conditions: Canis lupus familiaris
[2] = molecular target: Beta-3 adrenergic receptor (Canis lupus familiaris, UniProt O02662); assay: Agonist activity at dog recombinant beta3 adrenergic receptor expressed in CHO cells assessed as cAMP accumulation by enzyme immunoassay; assay type: functional, cell-based
[3] = Protein binding in Beagle dog serum; assay type: ADME, cell-free, Canis lupus familiaris; conditions: read-out: PPB (converted)
[4] = Inhibition of KCl-induced tonic contraction in Beagle dog detrusor muscle strips preincubated for 15 mins before KCl challenge; assay type: functional; conditions: Canis lupus familiaris
[5] = test system: Canis familiaris; assay: Inhibition of carbachol-induced increase in intravesical pressure in Beagle dog OAB model at 10 ug/kg, iv for 30 mins measured for 180 mins; assay type: functional; conditions: Canis lupus familiaris
[6] = AUC (0 to 24 hrs) in rat at 0.32 mg/kg, po by cassette assay; assay type: ADME, organism-based; parameters: time < 24 hr, dose 0.32 mg/kg, route oral; conditions: plasma
[7] = Total clearance in monkey at 0.32 mg/kg, iv by cassette assay; assay type: ADME, organism-based, Macaca mulatta; parameters: dose 0.32 mg/kg, route intravenous; conditions: rhesus monkey, in vivo
[8] = Total clearance in Beagle dog at 0.10 mg/kg, iv by cassette assay; assay type: ADME, organism-based, Canis lupus familiaris; parameters: dose 0.1 mg/kg, route intravenous; conditions: in vivo, 0.1 mg/kg
[9] = Terminal half life in Beagle dog plasma at 0.10 mg/kg, iv by cassette assay; assay type: ADME, organism-based, Canis lupus familiaris; parameters: dose 0.1 mg/kg, route intravenous; conditions: 0.1 mg/kg, read-out: beta t1/2 (converted)
[10] = Total clearance in rat at 0.32 mg/kg, iv by cassette assay; assay type: ADME, organism-based; parameters: dose 0.32 mg/kg, route intravenous; conditions: in vivo
[11] = Bioavailability in monkey at 0.32 mg/kg, po and iv by cassette assay; assay type: ADME, organism-based, Macaca mulatta; conditions: rhesus monkey, in vivo
[12] = AUC (0 to 24 hrs) in Beagle dog at 0.10 mg/kg, po by cassette assay; assay type: ADME, organism-based, Canis lupus familiaris; parameters: time < 24 hr, dose 0.1 mg/kg, route oral; conditions: plasma, 0.1 mg/kg
[13] = Bioavailability in Beagle dog at 0.10 mg/kg, po and iv by cassette assay; assay type: ADME, organism-based, Canis lupus familiaris; conditions: in vivo, 0.1 mg/kg
[14] = Terminal half life in rat plasma at 0.32 mg/kg, iv by cassette assay; assay type: ADME, organism-based; parameters: dose 0.32 mg/kg, route intravenous; conditions: read-out: beta t1/2 (converted)
[15] = Bioavailability in rat at 0.32 mg/kg, po and iv by cassette assay; assay type: ADME, organism-based; conditions: in vivo
[16] = Cmax in Beagle dog at 0.10 mg/kg, po by cassette assay; assay type: ADME, organism-based, Canis lupus familiaris; parameters: dose 0.1 mg/kg, route oral; conditions: in vivo, 0.1 mg/kg
[17] = Cmax in rat at 0.32 mg/kg, po by cassette assay; assay type: ADME, organism-based; parameters: dose 0.32 mg/kg, route oral; conditions: in vivo
[18] = molecular target: Beta-3 adrenergic receptor (Homo sapiens, UniProt P13945); assay: Agonist activity at human recombinant beta3 adrenergic receptor expressed in CHO cells assessed as cAMP accumulation by enzyme immunoassay; assay type: functional, cell-based
[19] = molecular target: Beta-1 adrenergic receptor (Homo sapiens, UniProt P08588)
Description: Agonist activity at human recombinant beta-1 adrenergic receptor expressed in CHO cells assessed as cAMP accumulation by enzyme immunoassay

[20] = molecular target: Beta-2 adrenergic receptor (Homo sapiens, UniProt P07550)
Description: Agonist activity at human recombinant beta2 adrenergic receptor expressed in CHO cells assessed as cAMP accumulation by enzyme immunoassay

[21] = Ratio of EC50 for inhibition of KCl-induced tonic contraction in anesthetized Beagle dog detrusor muscle strip to EC50 for dog recombinant beta3 adrenergic receptor expressed in CHO cells; parameters: species or system Canis lupus familiaris
[22] = test system: Canis familiaris; assay: Ratio of Cmax for drug to Cmax for (R)-4'-(2-(2-(3-chlorophenyl)-2-hydroxyethylamino)ethyl)-3-isopropoxybiphenyl-4-carboxylic acid in beagle dog at 0.1 or 0.2 mg/kg, po by cassette assay; assay type: ADME, organism-based, Canis lupus familiaris; parameters: dose 0.2 mg/kg, route oral; conditions: in vivo

Chain of Beta-2 adrenergic receptor (P07550 whole entry): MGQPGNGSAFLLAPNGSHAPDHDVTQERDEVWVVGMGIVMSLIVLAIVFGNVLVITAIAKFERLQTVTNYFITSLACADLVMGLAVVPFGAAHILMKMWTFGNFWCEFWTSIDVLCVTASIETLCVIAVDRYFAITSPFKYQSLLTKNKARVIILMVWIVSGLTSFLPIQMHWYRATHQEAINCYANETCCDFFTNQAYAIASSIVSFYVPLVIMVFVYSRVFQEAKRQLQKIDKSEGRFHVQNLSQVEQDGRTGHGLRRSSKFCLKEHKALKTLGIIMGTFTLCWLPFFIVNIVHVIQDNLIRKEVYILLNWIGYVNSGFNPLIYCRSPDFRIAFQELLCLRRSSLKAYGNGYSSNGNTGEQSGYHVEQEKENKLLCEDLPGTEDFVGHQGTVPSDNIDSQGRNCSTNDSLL
Chain of Beta-3 adrenergic receptor (Canis lupus familiaris, UniProt O02662) (O02662 whole entry): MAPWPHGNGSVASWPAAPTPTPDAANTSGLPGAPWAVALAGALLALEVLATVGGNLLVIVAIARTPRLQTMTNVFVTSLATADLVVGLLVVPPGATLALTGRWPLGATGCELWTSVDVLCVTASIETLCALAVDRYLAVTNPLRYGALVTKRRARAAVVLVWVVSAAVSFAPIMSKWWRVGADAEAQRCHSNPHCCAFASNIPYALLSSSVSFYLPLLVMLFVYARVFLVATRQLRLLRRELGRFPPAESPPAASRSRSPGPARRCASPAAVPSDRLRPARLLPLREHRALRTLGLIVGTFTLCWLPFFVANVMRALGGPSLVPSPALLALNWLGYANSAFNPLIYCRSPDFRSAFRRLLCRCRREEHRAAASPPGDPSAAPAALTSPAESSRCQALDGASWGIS
Chain of Beta-1 adrenergic receptor (P08588 whole entry): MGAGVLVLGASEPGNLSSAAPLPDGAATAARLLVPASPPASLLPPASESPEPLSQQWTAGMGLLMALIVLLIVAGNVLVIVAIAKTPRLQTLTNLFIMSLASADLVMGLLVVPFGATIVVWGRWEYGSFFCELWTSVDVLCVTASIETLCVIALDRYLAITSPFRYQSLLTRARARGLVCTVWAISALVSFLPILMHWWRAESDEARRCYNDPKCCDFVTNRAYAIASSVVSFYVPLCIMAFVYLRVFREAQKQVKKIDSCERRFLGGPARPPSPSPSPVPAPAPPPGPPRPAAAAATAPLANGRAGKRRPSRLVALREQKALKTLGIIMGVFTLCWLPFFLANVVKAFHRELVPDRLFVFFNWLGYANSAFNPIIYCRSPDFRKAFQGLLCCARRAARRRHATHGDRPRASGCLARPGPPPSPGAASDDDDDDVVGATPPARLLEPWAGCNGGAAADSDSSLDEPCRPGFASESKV
Chain of Beta-3 adrenergic receptor (Homo sapiens, UniProt P13945) (P13945 whole entry): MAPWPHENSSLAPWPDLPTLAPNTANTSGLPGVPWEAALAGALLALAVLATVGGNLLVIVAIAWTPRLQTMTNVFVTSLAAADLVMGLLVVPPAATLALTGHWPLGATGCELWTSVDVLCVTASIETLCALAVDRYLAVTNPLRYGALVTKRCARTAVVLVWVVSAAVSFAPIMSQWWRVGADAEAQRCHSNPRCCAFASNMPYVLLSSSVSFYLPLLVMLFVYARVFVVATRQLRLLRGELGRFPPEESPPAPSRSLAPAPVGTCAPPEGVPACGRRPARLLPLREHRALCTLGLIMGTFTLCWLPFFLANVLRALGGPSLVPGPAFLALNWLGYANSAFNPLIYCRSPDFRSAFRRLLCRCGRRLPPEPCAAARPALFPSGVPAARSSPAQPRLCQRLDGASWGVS

Row | Compound | EC50 ([2]; read-out: EC50) [nM] | EC50 ([4]; read-out: EC50) [nM] | clearance [8] [mL/min/kg] | half-life [9] [min] | AUC(0-t) at 24 h [12] [ng·h/mL] | bioavailability [13] [%] | Cmax [16] [ng/mL] | EC50 ([18]; read-out: EC50) [nM] | EC50 [19] [nM] | other results
1 | CC(C)Cc1cc(-c2ccc(CCNC[C@H](O)c3ccccc3)cc2)ccc1C(=O)O | 2.2 | 8.7 | – | – | – | – | – | – | – | EC50 [1]: 18.7 nM; ED50 [1]: 0.0459 mg/kg; fraction unbound [3]: 0.14
2 | CC(C)Sc1cc(-c2ccc(CCNC[C@H](O)c3ccccc3)cc2)ccc1C(=O)O | 1.2 | 11 | – | – | – | – | – | – | – | EC50 [1]: 11.2 nM; ED50 [1]: 0.047 mg/kg
3 | CC(C)Oc1cc(-c2ccc(CCNC[C@H](O)c3ccccc3)cc2)ccc1C(=O)O | – | 6.8 | – | – | – | – | – | – | – | inhibition in vivo at 0.01 mg/kg [5]: > 70%
4 | CS(=O)(=O)NC(=O)c1ccc(-c2ccc(CCNC[C@H](O)c3cnccc3N)cc2)cc1OC1CCCCC1.Cl.Cl | – | – | 34.9 | 402 | 26.7 | 54 | 2.5 | – | – | AUC(0-t) at 24 h [6]: 6.3 ng·h/mL; clearance [7]: 52 mL/min/kg; ED50 [1]: 0.0143 mg/kg; clearance [10]: 36.4 mL/min/kg; bioavailability [11]: 0%; half-life [14]: 102 min; bioavailability [15]: 5%; Cmax [17]: 3.3 ng/mL
5 | CS(=O)(=O)NC(=O)c1ccc(-c2ccc(CCNC[C@H](O)c3ccc(N)cc3)cc2)cc1OC1CCCCC1.Cl.Cl | – | – | 5 | 342 | 212 | 68 | 17.5 | 0.5 | > 1000 | EC50 ([18]; read-out: pEC50 (converted)): 0.0631 nM
6 | CS(=O)(=O)NC(=O)c1ccc(-c2ccc(CCNC[C@H](O)c3cccnc3)cc2)cc1NC1CCCCC1.Cl.Cl.Cl | – | – | 12.4 | 78 | 28.4 | 21 | 10.3 | 0.062 | > 1000 | EC50 [20]: > 10 µM
7 | CS(=O)(=O)NC(=O)c1ccc(-c2ccc(CCNC[C@H](O)c3ccccc3)cc2)cc1NC1CCCCC1.Cl.Cl | – | – | 9.9 | 234 | 33.5 | 22 | 3.2 | 0.14 | 900 | –
8 | CS(=O)(=O)NC(=O)c1ccc(-c2ccc(CCNC[C@H](O)c3ccccc3)cc2)cc1OC1CCCCC1.Cl | 0.83 | > 50 | 3 | 468 | 363 | 70 | 22.2 | 0.43 | > 1000 | EC50 ([18]; read-out: pEC50 (converted)): 0.126 nM; inhibition in vivo at 0.01 mg/kg [5]: 58%; Ratio EC50 [21]: >50; EC50 ([4]; read-out: pEC50 (converted)): 12.6 nM
9 | CS(=O)(=O)NC(=O)c1ccc(-c2ccc(CCNC[C@H](O)c3ccccc3)cc2)cc1Oc1ccccc1.Cl | 2.9 | – | 2.2 | 264 | 756 | 98 | 70.3 | 0.6 | > 1000 | inhibition in vivo at 0.01 mg/kg [5]: 35%
10 | CC(C)Oc1cc(-c2ccc(CCNC[C@H](O)c3cccnc3)cc2)ccc1C(=O)NS(C)(=O)=O | – | – | – | – | – | – | – | 1 | 130 | –
11 | CC(C)Cc1cc(-c2ccc(CCNC[C@H](O)c3ccccc3)cc2)ccc1C(=O)NS(C)(=O)=O.Cl | 0.88 | 2.6 | 5.3 | 210 | 210 | 67 | 24.9 | 0.46 | > 1000 | AUC(0-t) at 24 h [6]: 64.8 ng·h/mL; EC50 [1]: 14.2 nM; ED50 [1]: 0.0247 mg/kg; EC50 [20]: > 10 µM; clearance [10]: 35.2 mL/min/kg; inhibition in vivo at 0.01 mg/kg [5]: > 70%; fraction unbound [3]: 0.08; half-life [14]: 150 min; bioavailability [15]: 40%; Cmax [17]: 6.4 ng/mL
12 | CC(C)Oc1cc(-c2ccc(CCNC[C@H](O)c3cccnc3)cc2)ccc1C(=O)O | – | – | – | – | – | – | – | – | – | EC50 ([18]; read-out: pEC50 (converted)): 1.58 nM; EC50 [20]: > 10 µM; EC50 ([2]; read-out: pEC50 (converted)): 10 nM; EC50 ([4]; read-out: pEC50 (converted)): 7.94 nM; Ratio [22]: 0.65
13 | COc1cc(-c2ccc(CCNC[C@H](O)c3ccccc3)cc2)ccc1C(=O)NS(C)(=O)=O | – | – | – | – | – | – | – | 18 | 730 | –
14 | CCCCCOc1cc(-c2ccc(CCNC[C@H](O)c3ccccc3)cc2)ccc1C(=O)NS(C)(=O)=O | – | – | – | – | – | – | – | 2.8 | 160 | –
